For ten compounds, IC50 and Ki results are on record in ChEMBL document CHEMBL1909046, “DrugMatrix in vitro pharmacology data”.

A short description of test [1]: DRUGMATRIX: Tumor Necrosis Factor (TNF), Non-Selective radioligand binding (ligand: [125I] TNF-alpha). It counts as cell membranes, Membrane. The settings on record: u-937; Not Active = under 50% inhibition at 10 µM.
Test [2] has as its target Kappa-type opioid receptor (Homo sapiens, UniProt P41145). Kind of test: DRUGMATRIX: Opiate kappa (OP2, KOP) radioligand binding (ligand: [3H] Diprenorphine). In kind it is cell membranes, HEK293, Membrane. The settings on record: hek293; Not Active = under 50% inhibition at 10 µM.
For the next test, the target named is Mu-type opioid receptor (Homo sapiens, UniProt P35372). Nature of the test: DRUGMATRIX: Opiate mu (OP3, MOP) radioligand binding (ligand: [3H] Diprenorphine). It counts as cell membranes, CHO-K1, Membrane. The settings on record: Not Active = under 50% inhibition at 10 µM.
Sequence of Mu-type opioid receptor (P35372 whole entry): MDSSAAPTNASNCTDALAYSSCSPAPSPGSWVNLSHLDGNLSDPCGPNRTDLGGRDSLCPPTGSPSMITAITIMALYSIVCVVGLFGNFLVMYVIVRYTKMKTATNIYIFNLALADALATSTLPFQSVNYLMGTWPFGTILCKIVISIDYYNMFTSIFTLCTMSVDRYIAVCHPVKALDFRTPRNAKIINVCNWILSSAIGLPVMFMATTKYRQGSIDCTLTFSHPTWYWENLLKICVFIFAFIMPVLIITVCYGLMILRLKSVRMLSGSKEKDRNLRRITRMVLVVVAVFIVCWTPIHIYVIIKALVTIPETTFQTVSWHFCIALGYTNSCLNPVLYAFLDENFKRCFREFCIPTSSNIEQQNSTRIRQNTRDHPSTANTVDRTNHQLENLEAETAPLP
The target in another test is T1, Neutrophil elastase (Homo sapiens, UniProt P08246).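 Note: inhibition of neutrophil elastase enzyme activity, measured with a p-nitroanilide-linked peptide substrate; in other assays of this panel Not Active means under 50% inhibition at 10 µM.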
T1 sequence (P08246 whole entry): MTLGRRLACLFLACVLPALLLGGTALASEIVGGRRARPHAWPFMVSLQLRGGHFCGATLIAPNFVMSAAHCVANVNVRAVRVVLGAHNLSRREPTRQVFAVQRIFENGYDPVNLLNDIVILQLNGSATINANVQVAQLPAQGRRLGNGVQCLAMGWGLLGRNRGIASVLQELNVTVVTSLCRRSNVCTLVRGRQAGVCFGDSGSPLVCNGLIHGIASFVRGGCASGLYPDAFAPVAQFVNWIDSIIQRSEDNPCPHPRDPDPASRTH
It counts as tissue-based.

Test [3] concerns the target Mitogen-activated protein kinase 14 (Homo sapiens, UniProt Q16539). Further details: species or system Escherichia coli.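 Note: inhibition of p38alpha enzyme activity in a biochemical kinase assay, with myelin basic protein serving as substrate; in other assays of this panel Not Active means under 50% inhibition at 10 µM.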
Test [4] deals with Epidermal growth factor receptor (Homo sapiens, UniProt P00533). Nature of the test: DRUGMATRIX: Protein Tyrosine Kinase, EGF Receptor enzyme inhibition (substrate: Poly(Glu:Tyr)). It counts as cell-based, Insect cells. The settings on record: insect cells; Not Active = under 50% inhibition at 10 µM.
Sequence of Epidermal growth factor receptor (P00533 whole entry): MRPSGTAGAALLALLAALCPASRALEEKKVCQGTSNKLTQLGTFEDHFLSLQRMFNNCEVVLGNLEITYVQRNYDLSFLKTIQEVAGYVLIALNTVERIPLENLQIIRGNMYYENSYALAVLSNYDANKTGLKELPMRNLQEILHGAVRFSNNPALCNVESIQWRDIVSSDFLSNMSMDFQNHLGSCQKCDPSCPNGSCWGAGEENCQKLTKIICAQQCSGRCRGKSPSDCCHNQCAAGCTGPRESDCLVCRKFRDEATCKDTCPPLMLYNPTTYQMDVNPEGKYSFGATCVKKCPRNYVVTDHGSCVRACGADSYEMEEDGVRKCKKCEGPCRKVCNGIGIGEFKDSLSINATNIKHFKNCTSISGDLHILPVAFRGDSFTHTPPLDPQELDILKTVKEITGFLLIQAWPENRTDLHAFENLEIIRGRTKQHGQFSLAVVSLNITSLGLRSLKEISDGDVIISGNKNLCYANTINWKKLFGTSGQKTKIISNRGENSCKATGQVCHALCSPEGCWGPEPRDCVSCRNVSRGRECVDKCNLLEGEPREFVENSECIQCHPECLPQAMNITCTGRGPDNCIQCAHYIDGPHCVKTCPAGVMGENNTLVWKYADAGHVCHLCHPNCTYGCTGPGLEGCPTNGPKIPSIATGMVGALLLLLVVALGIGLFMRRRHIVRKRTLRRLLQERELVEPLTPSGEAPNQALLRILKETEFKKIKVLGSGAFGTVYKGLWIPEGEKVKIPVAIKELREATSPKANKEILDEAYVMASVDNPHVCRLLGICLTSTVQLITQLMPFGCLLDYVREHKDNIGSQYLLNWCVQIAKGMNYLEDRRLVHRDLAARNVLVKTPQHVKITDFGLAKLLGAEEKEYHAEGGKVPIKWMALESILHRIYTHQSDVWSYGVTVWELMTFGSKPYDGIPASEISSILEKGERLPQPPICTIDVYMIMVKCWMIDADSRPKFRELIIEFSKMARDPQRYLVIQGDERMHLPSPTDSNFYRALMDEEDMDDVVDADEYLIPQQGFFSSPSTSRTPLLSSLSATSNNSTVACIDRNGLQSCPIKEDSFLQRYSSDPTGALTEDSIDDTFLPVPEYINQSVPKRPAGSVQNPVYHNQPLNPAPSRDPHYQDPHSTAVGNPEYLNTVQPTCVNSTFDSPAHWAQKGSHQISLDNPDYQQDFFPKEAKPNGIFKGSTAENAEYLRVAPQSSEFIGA
In test [5] the target is Receptor tyrosine-protein kinase erbB-2 (Homo sapiens, UniProt P04626). Kind of test: biochemical. In kind it is cell-based, Insect cells. The settings on record: insect cells.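 Note: inhibition of HER2 kinase enzyme activity, measured with Poly(Glu:Tyr) as the phosphorylation substrate; in other assays of this panel Not Active means under 50% inhibition at 10 µM.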
Sequence of Receptor tyrosine-protein kinase erbB-2 (P04626 whole entry): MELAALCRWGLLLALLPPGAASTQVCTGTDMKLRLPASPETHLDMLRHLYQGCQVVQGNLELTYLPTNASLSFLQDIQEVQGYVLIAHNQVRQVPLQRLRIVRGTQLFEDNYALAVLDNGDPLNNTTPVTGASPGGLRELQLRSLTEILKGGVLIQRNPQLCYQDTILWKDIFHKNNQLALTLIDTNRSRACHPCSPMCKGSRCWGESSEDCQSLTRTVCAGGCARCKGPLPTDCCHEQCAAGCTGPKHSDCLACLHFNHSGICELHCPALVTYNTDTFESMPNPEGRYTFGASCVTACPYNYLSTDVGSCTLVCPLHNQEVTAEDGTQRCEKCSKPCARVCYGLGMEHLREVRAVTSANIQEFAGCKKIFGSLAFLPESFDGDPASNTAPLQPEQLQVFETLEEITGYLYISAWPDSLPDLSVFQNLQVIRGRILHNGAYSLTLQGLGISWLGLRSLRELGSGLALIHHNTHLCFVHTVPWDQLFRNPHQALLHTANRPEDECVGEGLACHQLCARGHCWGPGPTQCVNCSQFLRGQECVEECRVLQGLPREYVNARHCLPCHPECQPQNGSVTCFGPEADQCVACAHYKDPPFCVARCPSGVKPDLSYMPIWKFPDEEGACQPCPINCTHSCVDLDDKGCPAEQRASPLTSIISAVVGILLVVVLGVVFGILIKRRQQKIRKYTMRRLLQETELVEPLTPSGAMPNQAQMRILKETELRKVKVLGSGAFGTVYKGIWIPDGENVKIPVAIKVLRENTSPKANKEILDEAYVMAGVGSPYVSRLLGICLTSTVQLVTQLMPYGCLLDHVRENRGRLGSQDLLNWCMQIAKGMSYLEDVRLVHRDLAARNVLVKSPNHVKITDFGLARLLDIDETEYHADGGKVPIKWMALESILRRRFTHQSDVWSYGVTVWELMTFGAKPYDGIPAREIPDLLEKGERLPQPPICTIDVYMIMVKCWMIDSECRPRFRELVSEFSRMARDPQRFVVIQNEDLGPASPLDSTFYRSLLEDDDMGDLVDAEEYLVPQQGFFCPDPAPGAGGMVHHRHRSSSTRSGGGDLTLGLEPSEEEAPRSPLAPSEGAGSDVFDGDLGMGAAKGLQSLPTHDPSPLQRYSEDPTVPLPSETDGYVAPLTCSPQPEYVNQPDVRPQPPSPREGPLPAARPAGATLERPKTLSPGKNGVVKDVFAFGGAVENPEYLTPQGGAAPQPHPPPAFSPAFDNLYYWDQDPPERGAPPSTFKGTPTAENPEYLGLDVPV

Sequence of Kappa-type opioid receptor (P41145 whole entry): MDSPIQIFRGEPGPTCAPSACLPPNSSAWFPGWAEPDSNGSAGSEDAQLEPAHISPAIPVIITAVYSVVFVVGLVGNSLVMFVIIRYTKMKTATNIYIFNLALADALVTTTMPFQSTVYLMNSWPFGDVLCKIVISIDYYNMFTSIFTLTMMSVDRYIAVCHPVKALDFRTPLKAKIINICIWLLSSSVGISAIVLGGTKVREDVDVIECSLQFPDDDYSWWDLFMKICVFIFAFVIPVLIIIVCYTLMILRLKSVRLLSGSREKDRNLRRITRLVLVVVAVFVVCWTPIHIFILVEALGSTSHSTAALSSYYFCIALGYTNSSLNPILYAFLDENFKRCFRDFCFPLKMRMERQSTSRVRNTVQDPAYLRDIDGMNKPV
Sequence of Mitogen-activated protein kinase 14 (Q16539 whole entry): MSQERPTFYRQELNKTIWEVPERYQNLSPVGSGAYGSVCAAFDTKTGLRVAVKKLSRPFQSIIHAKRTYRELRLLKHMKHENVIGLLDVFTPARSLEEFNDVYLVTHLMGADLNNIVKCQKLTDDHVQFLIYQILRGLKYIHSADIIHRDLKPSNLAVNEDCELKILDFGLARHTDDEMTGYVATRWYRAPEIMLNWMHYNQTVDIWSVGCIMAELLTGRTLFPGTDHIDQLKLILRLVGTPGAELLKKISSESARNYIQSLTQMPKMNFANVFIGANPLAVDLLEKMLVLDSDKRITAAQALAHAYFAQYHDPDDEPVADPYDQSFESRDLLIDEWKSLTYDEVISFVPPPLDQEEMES

With `CN(C/C=C/C#CC(C)(C)C)Cc1cccc2ccccc12` [TERBINAFINE], the 50% inhibitory concentration (IC50) result (in test [1]; in test [2]; at Mu-type opioid receptor (cho-k1); against Neutrophil elastase; in test [3]; in test [4]) was “Not Active” throughout. Moreover, the IC50 result in test [5] is on record as “Not Active”. For the same compound, the Ki result in test [1] is “Not Active”.
For `CCCCNc1ccc(C(=O)OCCN(C)C)cc1` [TETRACAINE], the IC50 result (in test [1]; in test [2]; at Mu-type opioid receptor (cho-k1); against Neutrophil elastase; in test [3]; in test [4]) was “Not Active” in each case. Besides, the IC50 result in test [5] was “Not Active”. Moreover, the Ki result in test [1] is “Not Active”.
On to `Cc1c(C)c2c(c(C)c1O)CCC(C)(CN1CCN(c3cc(N4CCCC4)nc(N4CCCC4)n3)CC1)O2` (stereo unspecified), for which the IC50 entry in test [1] was “Not Active”; in test [2], “Not Active”; at Mu-type opioid receptor (read-out: IC50), 10.7 µM; at Neutrophil elastase, “Not Active”; in test [3] (read-out: IC50), 5.6 µM; in test [4] it was “Not Active”. For the same compound, the IC50 result in test [5] is given as “Not Active”. The Ki entry in test [1] is “Not Active”; at Mu-type opioid receptor it was 4.36 µM.
For `Clc1ccccc1CN1CCc2sccc2C1` [TICLOPIDINE], the IC50 entry (in test [1]; in test [2]; on Mu-type opioid receptor (cho-k1); on Neutrophil elastase; in test [3]; in test [4]) was “Not Active” in each case. Besides, the IC50 entry in test [5] is listed as “Not Active”. In test [1], the Ki result was “Not Active”.
As to `CS(=O)(=O)c1ccc([C@@H](O)[C@@H](CO)NC(=O)C(Cl)Cl)cc1` [THIAMPHENICOL], the half-maximal inhibitory concentration (IC50) result (in test [1]; in test [2]; on Mu-type opioid receptor (cho-k1); against Neutrophil elastase; in test [3]; in test [4]) was “Not Active” throughout. The IC50 result in test [5] is “Not Active”. Moreover, in test [1], the inhibition constant Ki result is recorded as “Not Active”.
Turning to `O=C(Oc1ccccc1C(=O)O)c1ccccc1O` [SALSALATE], the IC50 entry (in test [1]; in test [2]; at Mu-type opioid receptor (cho-k1); against Neutrophil elastase; in test [3]; in test [4]) was “Not Active” each time. Also, in test [5], the IC50 result is listed as “Not Active”. The Ki result in test [1] is “Not Active”.
Regarding `CC(C)NCC(O)c1ccc(NS(C)(=O)=O)cc1` (stereo unspecified) [SOTALOL], the IC50 result (in test [1]; in test [2]; on Mu-type opioid receptor (cho-k1); against Neutrophil elastase; in test [3]; in test [4]) was “Not Active” throughout. Besides, the IC50 result in test [5] is “Not Active”. Moreover, the Ki entry in test [1] is reported as “Not Active”.
Consider `O.O.O.O.O.O.[Cl-].[Cl-].[Sr+2]` [STRONTIUM CHLORIDE HEXAHYDRATE], for which the IC50 result (in test [1]; in test [2]; at Mu-type opioid receptor (cho-k1); against Neutrophil elastase; in test [3]; in test [4]) was “Not Active” each time. The IC50 result in test [5] was “Not Active”. The Ki result in test [1] is on record as “Not Active”.
Take `Nc1cc(N2CCCCC2)nc(N)[n+]1[O-]` [MINOXIDIL]: the IC50 result (in test [1]; in test [2]; on Mu-type opioid receptor (cho-k1); at Neutrophil elastase; in test [3]; in test [4]) was “Not Active” each time. In addition, in test [5], the IC50 entry was “Not Active”. Also, the Ki result in test [1] was “Not Active”.
As to `CO[C@H]1/C=C/O[C@@]2(C)Oc3c(C)c(O)c4c(O)c(c(/C=N/N5CCN(C6CCCC6)CC5)c(O)c4c3C2=O)NC(=O)/C(C)=C\C=C\[C@H](C)[C@H](O)[C@@H](C)[C@@H](O)[C@@H](C)[C@H](OC(C)=O)[C@@H]1C` [RIFAPENTINE], the IC50 entry (in test [1]; in test [2]; on Mu-type opioid receptor (cho-k1); against Neutrophil elastase; in test [3]; in test [4]) was “Not Active” each time. Moreover, the half-inhibitory concentration (IC50) entry in test [5] was “Not Active”. The Ki result in test [1] is “Not Active”.

In general, IC50 refers to the concentration needed to halve the response being measured. Usually Ki stands for the dissociation constant of the complex between target and ligand, obtained from inhibition or displacement.
